Experiments:
DHFR fusion protein = experiment: MP5 competition assay (yeast three-hybrid X-gal plate assay of lacZ transcription); assay type: cell-based; conditions: 1 μM D8M, X-gal plates, LexA/B42 chimeras of DHFR and rGR
Method: FIG. 7. MP5 Competition Assay. […] Columns A through H on each plate correspond to yeast strains containing different LexA- and/or B42-chimeras: A, LexA-Sec16p, B42-Sec6p. A is a direct protein-protein interaction used as a positive control. B, LexA, B42. C, LexA-eDHFR, B42-rGR. D, LexA-mDHFR, B42-rGR. E, LexA-rGR, B42-eDHFR. F, LexA-rGR, B42-mDHFR. G, LexA-eDHFR, B42. H, LexA, B42-rGR.
This competition assay was performed using D8M as the “well characterized” small molecule.

LexA-rGR and B42-DHFR = target: T1, LexA-rGR and B42-DHFR (UniProt P06536+P0ABQ4); conditions: shown by WO 01/53355; cited from earlier work
T1 sequence (P06536 542-776 limits assumed): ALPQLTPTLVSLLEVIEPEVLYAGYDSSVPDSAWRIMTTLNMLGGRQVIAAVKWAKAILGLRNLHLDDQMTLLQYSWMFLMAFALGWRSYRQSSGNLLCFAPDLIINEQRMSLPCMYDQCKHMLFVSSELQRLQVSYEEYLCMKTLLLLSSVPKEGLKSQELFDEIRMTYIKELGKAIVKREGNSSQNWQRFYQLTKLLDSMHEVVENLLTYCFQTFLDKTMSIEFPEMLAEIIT
T1 sequence (P0ABQ4 1-159): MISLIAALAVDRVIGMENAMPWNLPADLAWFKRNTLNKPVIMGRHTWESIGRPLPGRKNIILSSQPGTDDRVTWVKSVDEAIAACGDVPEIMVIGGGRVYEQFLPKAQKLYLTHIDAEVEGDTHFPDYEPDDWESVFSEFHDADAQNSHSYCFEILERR

[1] = system: dihydrofolate reductase (DHFR); conditions: cited from earlier work
S. cerevisiae = conditions: supplemented with appropriate nutrients; cited from earlier work
E. coli = conditions: supplemented with appropriate nutrients; cited from earlier work

Compound | induction of lacZ transcription (DHFR fusion protein) | dimerization of LexA-rGR and B42-DHFR based on lacZ transcription (LexA-rGR and B42-DHFR) | affinity of DHFR binding [1] | affinity of DHFR inhibition [1] | growth in the presence of MTX (S. cerevisiae) | growth in the presence of MTX (E. coli)
C[C@@H]1C[C@H]2C3CCC4=CC(=O)C=C[C@]4(C)[C@@]3(F)[C@@H](O)C[C@]2(C)[C@@]1(O)C(=O)NCCSCCCCCCCCSCC[C@H](NC(=O)c1ccc(N(C)Cc2cnc3nc(N)nc(N)c3n2)cc1)C(=O)O (stereo partly drawn) [D8M] | induced lacZ transcription | mediate the dimerization of LexA-rGR and B42-DHFR |  |  |  | 
CN(Cc1cnc2nc(N)nc(N)c2n1)c1ccc(C(=O)N[C@@H](CCC(=O)O)C(=O)O)cc1 [MTX, methotrexate] |  |  | nM affinity | pM affinity | grow in the presence of MTX | grow in the presence of MTX
